Experimental findings from US7709513B2, “Benzooxazol-2-one derivatives as lipase and phospholipase inhibitors” (Sanofi-Aventis, priority 2005, dated 2010) are described below.

The target in the assay is T1, endothelial lipase (EL) (Homo sapiens, UniProt Q9Y5X9).
T1 construct: made in house; host or cells: recombinant cell lines (CHO, HEK293); concentrated conditioned medium used as enzyme solution
T1 sequence (Q9Y5X9 21-500): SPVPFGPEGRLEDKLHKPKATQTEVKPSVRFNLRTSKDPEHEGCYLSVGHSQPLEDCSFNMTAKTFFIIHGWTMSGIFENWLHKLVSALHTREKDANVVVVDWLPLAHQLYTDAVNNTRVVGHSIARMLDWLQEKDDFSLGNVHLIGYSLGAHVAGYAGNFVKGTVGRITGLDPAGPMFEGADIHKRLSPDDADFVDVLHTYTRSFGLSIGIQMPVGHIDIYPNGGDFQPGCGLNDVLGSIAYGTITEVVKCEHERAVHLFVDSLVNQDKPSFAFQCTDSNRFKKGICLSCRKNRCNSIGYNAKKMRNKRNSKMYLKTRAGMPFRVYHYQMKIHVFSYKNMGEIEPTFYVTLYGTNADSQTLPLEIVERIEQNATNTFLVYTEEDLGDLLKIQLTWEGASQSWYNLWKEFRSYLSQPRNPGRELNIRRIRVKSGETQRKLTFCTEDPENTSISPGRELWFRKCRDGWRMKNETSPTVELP
Briefly: Further EL inhibition assay. The note with it: Bodipy-labelled phospholipid substrate, 37° C., 90 minutes, HPTLC fluorescence readout; EL from conditioned medium of recombinant cell lines (CHO, HEK293). It counts as biochemical. An excerpt:
EL is released as secretory protein in high concentration into cell culture medium (conditioned medium) by recombinant cell lines (CHO, HEK293). This is employed as enzyme solution after concentration.
The phospholipase-specific substrate 1,2-bis(4,4-difluoro-5,7-dimethyl-4-bora-3a,4a-diaza-s-indacene-3-undecanoyl)-sn-glycero-3-phosphocholine, (manufacturer Molecular Probes) is used to characterize the enzymatic activity of endothelial lipase and the effect of inhibitors. Hydrolysis of the A1 ester linkage of this phospholipid by the enzyme liberates the fluorescent dye Bodipy which can be detected after separation by thin-layer chromatography on an HPTLC plate (silica gel 60, Merck) or directly in the reaction vessel by measuring the fluorescence.
The substrate solution is prepared by dissolving 100 μg of 1,2-bis(4,4-difluoro-5,7-dimethyl-4-bora-3a,4a-diaza-s-indacene-3-undecanoyl)-sn-glycero-3-phospho-choline (manufacturer Molecular Probes) in 100 μl of DMSO and taking up in 2.4 mg of tripalmitin (Sigma) in 393 μl of chloroform which comprises 20 mg/ml DOP-choline (1,2-dioleoyl-sn-glycero-3-phosphocholine). 39.3 μl of this lipid mixture are transferred into a fresh reaction vessel, and the solvent is evaporated off. The lipid mixture is dissolved in 4 ml of 200 mM TRIS-HCl, 150 mM sodium chloride, pH=7.4, by sonication twice. The subsequent enzymic reaction takes place at 37° C. for 90 minutes. For this purpose, 20 μl of the substrate solution are incubated with 2 μl of inhibitor of appropriate concentration (dissolved in 10% DMSO, using 10% strength DMSO solution for control) and 2 μl of enzyme solution (conditioned medium). The 4 μl of the assay mixture are loaded onto an HPTLC plate (silica gel 60, Merck), and the liberated fluorescent dye is separated for detection with an eluent (diethyl ether:petroleum benzine:acetic acid [78:22:1]). After evaporation of the eluent, the plate is read in a fluorescence scanner. An increased liberation of the fluorescent dye in the uninhibited reaction is to be observed as a measure of the enzymic activity.

`CC(=O)c1ccc2c(c1)oc(=O)n2C(=O)NCc1ccccc1` [Example 1, 6-Acetyl-2-oxobenzooxazole-3-benzylcarboxamide]: the IC50 was 0.13 µM.
The same measure for `CCCCCCNC(=O)n1c(=O)oc2cc(C(C)=O)ccc21` [Example 3, 6-Acetyl-2-oxobenzooxazole-3-hexylcarboxamide]: 0.06 µM; for `CC(=O)c1ccc2c(c1)oc(=O)n2C(=O)NCc1ccccc1C` [Example 2, 6-Acetyl-2-oxobenzooxazole-3-(2-methylbenzyl)carboxamide]: 0.51 µM; for `O=C(NCc1ccccc1)n1c(=O)oc2ccc(Cl)cc21` [Example 7, 5-Chloro-2-oxobenzooxazole-3-benzylcarboxamide]: 0.23 µM.
Take `Cc1ccccc1CNC(=O)n1c(=O)oc2ccccc21` [Example 5, 2-Oxobenzooxazole-3-(2-methylbenzyl)carboxamide]: the IC50 stood at 0.95 µM.
